Experimental data published in ChEMBL document CHEMBL5512645, “A novel antimicrobial peptide with broad-spectrum and exceptional stability derived from the natural peptide Brevicidine” (Eur J Med Chem, 2024).

How the values were obtained:
Enterococcus faecalis = assay: Antibacterial activity against Enterococcus faecalis ATCC 29212 incubated for 18 to 24 hrs by broth microdilution method; assay type: functional; details: time 18-24 hrs
Acinetobacter baumannii = assay: Antibacterial activity against Acinetobacter baumannii ATCC 19606 incubated for 18 to 24 hrs by broth microdilution method; assay type: functional; details: time 18-24 hrs
[1] = system: Staphylococcus epidermidis; assay: Antibacterial activity against Staphylococcus epidermidis ATCC 12228 incubated for 18 to 24 hrs by broth microdilution method; assay type: functional; details: time 18-24 hrs
Staphylococcus aureus = assay: Antibacterial activity against Staphylococcus aureus ATCC 25923 incubated for 18 to 24 hrs by broth microdilution method; assay type: functional; details: time 18-24 hrs
Escherichia coli = assay: Antibacterial activity against Escherichia coli ATCC 25922 incubated for 18 to 24 hrs by broth microdilution method; assay type: functional; details: time 18-24 hrs
Pseudomonas aeruginosa = assay: Antibacterial activity against Pseudomonas aeruginosa ATCC 27853 incubated for 18 to 24 hrs by broth microdilution method; assay type: functional; details: time 18-24 hrs
Klebsiella pneumoniae = assay: Antibacterial activity against Klebsiella pneumoniae ATCC 700603 incubated for 18 to 24 hrs by broth microdilution method; assay type: functional; details: time 18-24 hrs
Bacillus subtilis = assay: Antibacterial activity against Bacillus subtilis ATCC 23857 incubated for 18 to 24 hrs by broth microdilution method; assay type: functional; details: time 18-24 hrs
Erythrocyte = assay: Hemolytic activity in mouse red blood cell assessed as hemolysis incubated for 1 hr; assay type: toxicity, cell-based

Row | SMILES | MIC (Enterococcus faecalis) | MIC (Acinetobacter baumannii) | MIC [1] | MIC (Staphylococcus aureus) | MIC (Escherichia coli) | MIC (Pseudomonas aeruginosa) | MIC (Klebsiella pneumoniae) | MIC (Bacillus subtilis) | MHC (Erythrocyte)
1 | CCC(C)CCC(=O)N[C@H](CC(N)=O)C(=O)N[C@H](Cc1ccc(-c2ccccc2)cc1)C(=O)N[C@H](Cc1c[nH]c2ccccc12)C(=O)N[C@H](CCCN)C(=O)N[C@@H](CCCN)C(=O)NCC(=O)N[C@H](CCCN)C(=O)N[C@@H](Cc1c[nH]c2ccccc12)C(=O)N[C@@H]1C(=O)N[C@@H]([C@@H](C)CC)C(=O)NCC(=O)N[C@@H](CO)C(=O)O[C@@H]1C (mixture of isomers) | 32 µM | 8 µM | 16 µM | 16 µM | 16 µM | 8 µM | 16 µM | 8 µM | 8 µM
2 | CCC(C)CCC(=O)N[C@H](CC(N)=O)C(=O)N[C@H](C)C(=O)N[C@H](Cc1c[nH]c2ccccc12)C(=O)N[C@H](CCCN)C(=O)N[C@@H](CCCN)C(=O)NCC(=O)N[C@H](CCCN)C(=O)N[C@@H](Cc1c[nH]c2ccccc12)C(=O)N[C@@H]1C(=O)N[C@@H]([C@@H](C)CC)C(=O)NCC(=O)N[C@@H](CO)C(=O)O[C@@H]1C (mixture of isomers) | > 128 µM | 32 µM | 8 µM | > 128 µM | 16 µM | 2 µM | 32 µM | 16 µM | 128 µM
3 | CCC(C)CCC(=O)N[C@H](CC(N)=O)C(=O)N[C@H](Cc1ccc(O)cc1)C(=O)N[C@H](Cc1c[nH]c2ccccc12)C(=O)N[C@H](CN)C(=O)N[C@@H](CN)C(=O)NCC(=O)N[C@H](CN)C(=O)N[C@@H](Cc1c[nH]c2ccccc12)C(=O)N[C@@H]1C(=O)N[C@@H]([C@@H](C)CC)C(=O)NCC(=O)N[C@@H](CO)C(=O)O[C@@H]1C (mixture of isomers) | > 128 µM | 32 µM | 16 µM | 128 µM | 32 µM | 4 µM | 16 µM | 32 µM | 128 µM
4 | CCC(C)CCC(=O)N[C@H](CC(N)=O)C(=O)N[C@H](Cc1ccc2ccccc2c1)C(=O)N[C@H](Cc1c[nH]c2ccccc12)C(=O)N[C@H](CCCN)C(=O)N[C@@H](CCCN)C(=O)NCC(=O)N[C@H](CCCN)C(=O)N[C@@H](Cc1c[nH]c2ccccc12)C(=O)N[C@@H]1C(=O)N[C@@H]([C@@H](C)CC)C(=O)NCC(=O)N[C@@H](CO)C(=O)O[C@@H]1C (mixture of isomers) | 32 µM | 8 µM | 16 µM | 32 µM | 8 µM | 4 µM | 8 µM | 8 µM | 8 µM
5 | CCC(C)CCC(=O)N[C@H](CC(N)=O)C(=O)N[C@H](Cc1ccc(C(C)(C)C)cc1)C(=O)N[C@H](Cc1c[nH]c2ccccc12)C(=O)N[C@H](CCCN)C(=O)N[C@@H](CCCN)C(=O)NCC(=O)N[C@H](CCCN)C(=O)N[C@@H](Cc1c[nH]c2ccccc12)C(=O)N[C@@H]1C(=O)N[C@@H]([C@@H](C)CC)C(=O)NCC(=O)N[C@@H](CO)C(=O)O[C@@H]1C (mixture of isomers) | 32 µM | 8 µM | 16 µM | 16 µM | 16 µM | 8 µM | 16 µM | 8 µM | 16 µM
6 | CCC(C)CCC(=O)N[C@H](CC(N)=O)C(=O)N[C@H](Cc1ccc(O)cc1)C(=O)N[C@H](Cc1c[nH]c2ccccc12)C(=O)N[C@H](CCCNC(=N)N)C(=O)N[C@@H](CCCNC(=N)N)C(=O)NCC(=O)N[C@H](CCCNC(=N)N)C(=O)N[C@@H](Cc1c[nH]c2ccccc12)C(=O)N[C@@H]1C(=O)N[C@@H]([C@@H](C)CC)C(=O)NCC(=O)N[C@@H](CO)C(=O)O[C@@H]1C (mixture of isomers) | 64 µM | 8 µM | 2 µM | 64 µM | 4 µM | 4 µM | 4 µM | 16 µM | 128 µM
7 | CCC(C)CCC(=O)N[C@H](CC(N)=O)C(=O)N[C@H](Cc1ccc(C)cc1)C(=O)N[C@H](Cc1c[nH]c2ccccc12)C(=O)N[C@H](CCCN)C(=O)N[C@@H](CCCN)C(=O)NCC(=O)N[C@H](CCCN)C(=O)N[C@@H](Cc1c[nH]c2ccccc12)C(=O)N[C@@H]1C(=O)N[C@@H]([C@@H](C)CC)C(=O)NCC(=O)N[C@@H](CO)C(=O)O[C@@H]1C (mixture of isomers) | 64 µM | 8 µM | 16 µM | 32 µM | 8 µM | 4 µM | 8 µM | 8 µM | 32 µM
8 | CCC(C)CCC(=O)N[C@H](CC(N)=O)C(=O)N[C@H](Cc1ccc(N)cc1)C(=O)N[C@H](Cc1c[nH]c2ccccc12)C(=O)N[C@H](CCCN)C(=O)N[C@@H](CCCN)C(=O)NCC(=O)N[C@H](CCCN)C(=O)N[C@@H](Cc1c[nH]c2ccccc12)C(=O)N[C@@H]1C(=O)N[C@@H]([C@@H](C)CC)C(=O)NCC(=O)N[C@@H](CO)C(=O)O[C@@H]1C (mixture of isomers) | > 128 µM | 32 µM | 64 µM | 128 µM | 8 µM | 4 µM | 16 µM | 16 µM | 128 µM
